These results are taken from ChEMBL document CHEMBL5338815 (J Med Chem, 2023).

Molecules are shown by their SMILES. pIC50: −log10 of the molar value. Activity calls are given as the source filed them. Bounds are passed on as bounds.

The target in data set [1] is T1, Histone-lysine N-methyltransferase EHMT2 (Homo sapiens, UniProt Q96KQ7).
T1 sequence (Q96KQ7 whole entry): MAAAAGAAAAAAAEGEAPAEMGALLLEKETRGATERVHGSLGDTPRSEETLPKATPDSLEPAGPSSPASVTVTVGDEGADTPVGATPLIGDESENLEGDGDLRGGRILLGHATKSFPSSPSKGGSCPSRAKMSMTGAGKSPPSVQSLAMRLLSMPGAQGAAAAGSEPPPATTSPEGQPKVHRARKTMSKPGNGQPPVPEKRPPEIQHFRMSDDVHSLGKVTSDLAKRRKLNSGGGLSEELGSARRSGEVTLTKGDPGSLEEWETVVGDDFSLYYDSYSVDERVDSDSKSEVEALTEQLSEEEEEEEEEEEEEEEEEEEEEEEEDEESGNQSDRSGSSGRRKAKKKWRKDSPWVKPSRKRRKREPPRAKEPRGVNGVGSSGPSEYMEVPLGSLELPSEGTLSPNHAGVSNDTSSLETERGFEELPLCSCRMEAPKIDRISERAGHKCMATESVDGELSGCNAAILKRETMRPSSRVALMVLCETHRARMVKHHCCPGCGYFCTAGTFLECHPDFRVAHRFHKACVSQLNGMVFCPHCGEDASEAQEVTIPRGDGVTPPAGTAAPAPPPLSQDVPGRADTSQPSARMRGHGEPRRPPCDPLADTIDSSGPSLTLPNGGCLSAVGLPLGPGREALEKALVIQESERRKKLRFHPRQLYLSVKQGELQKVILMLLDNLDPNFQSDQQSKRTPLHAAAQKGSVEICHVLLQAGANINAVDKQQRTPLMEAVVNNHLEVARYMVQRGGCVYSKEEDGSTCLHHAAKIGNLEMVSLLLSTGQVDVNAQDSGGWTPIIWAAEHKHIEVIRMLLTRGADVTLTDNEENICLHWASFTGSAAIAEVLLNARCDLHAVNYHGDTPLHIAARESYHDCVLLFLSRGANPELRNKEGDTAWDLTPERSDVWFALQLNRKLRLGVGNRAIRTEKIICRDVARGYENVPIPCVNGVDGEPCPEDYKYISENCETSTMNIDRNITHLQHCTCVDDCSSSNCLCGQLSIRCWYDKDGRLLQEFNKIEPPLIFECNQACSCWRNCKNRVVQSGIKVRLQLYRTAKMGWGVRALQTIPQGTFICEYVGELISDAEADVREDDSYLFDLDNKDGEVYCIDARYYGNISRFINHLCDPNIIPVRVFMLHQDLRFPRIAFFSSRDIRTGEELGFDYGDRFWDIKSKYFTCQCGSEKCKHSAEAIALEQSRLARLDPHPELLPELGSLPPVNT
The data set is described as follows: Inhibition of G9a (unknown origin) by AlphaLISA assay. For orientation: In Alpha technology, singlet oxygen from a donor bead excites a nearby acceptor bead.

Data set [2] can be described thus: Metabolic stability in mouse liver microsomes assessed as half life at 0.1 uM measured upto 60 mins by LC-MS/MS analysis. It is filed as ADME, Microsome. (Microsomes from liver hold many membrane-bound enzymes, among them those of drug oxidation.)
In data set [3] the test system is MDA-MB-231. The data set is described as follows: Antiproliferative activity against human MDA-MB-231 cells assessed as cell viability measured after 24 hrs by CCK-8 assay. It is filed as functional, cell-based. As to conditions: MDA-MB-231, 24 h.
The test system of data set [4] is PANC-1. The data set is described as follows: Antiproliferative activity against human PANC-1 cells assessed as cell viability measured after 24 hrs by CCK-8 assay. As to conditions: PANC-1, 24 h. The format is functional, cell-based.
For data set [5], the system named is MDA-MB-231. Kind of data set: Reduction in H3K9me2 level in human MDA-MB-231 cells at 10 uM incubated for 48 hrs followed replaced with fresh medium measured after 24 hrs by Western blot analysis. It is filed as functional, cell-based. (In general: In western blotting, separated proteins are transferred to a membrane and probed.)
In data set [6] the target is T2, Histone-lysine N-methyltransferase EHMT2 (Homo sapiens) (UniProt Q96KQ7).
T2 sequence (whole entry): T1 sequence (Q96KQ7 whole entry)
The data set is described as follows: Binding affinity to G9a in human MDA-MB-231 cells assessed as protein stabilization at 37 to 41.7 degC at 10 uM incubated for 15 hrs in presence of G9a antibody by CETSA. The format is cell-based.

Data set [7] relates to MDA-MB-231. Kind of data set: Reduction in H3K9me2 level in human MDA-MB-231 cells at 10 uM by Western blot analysis. As to conditions: time 24-96 hrs, TDE = time-dependent effect. The format is functional, cell-based.
Data set [8] addresses T3, Histone-lysine N-methyltransferase EHMT1 (Homo sapiens, UniProt Q9H9B1).
T3 sequence (Q9H9B1 whole entry): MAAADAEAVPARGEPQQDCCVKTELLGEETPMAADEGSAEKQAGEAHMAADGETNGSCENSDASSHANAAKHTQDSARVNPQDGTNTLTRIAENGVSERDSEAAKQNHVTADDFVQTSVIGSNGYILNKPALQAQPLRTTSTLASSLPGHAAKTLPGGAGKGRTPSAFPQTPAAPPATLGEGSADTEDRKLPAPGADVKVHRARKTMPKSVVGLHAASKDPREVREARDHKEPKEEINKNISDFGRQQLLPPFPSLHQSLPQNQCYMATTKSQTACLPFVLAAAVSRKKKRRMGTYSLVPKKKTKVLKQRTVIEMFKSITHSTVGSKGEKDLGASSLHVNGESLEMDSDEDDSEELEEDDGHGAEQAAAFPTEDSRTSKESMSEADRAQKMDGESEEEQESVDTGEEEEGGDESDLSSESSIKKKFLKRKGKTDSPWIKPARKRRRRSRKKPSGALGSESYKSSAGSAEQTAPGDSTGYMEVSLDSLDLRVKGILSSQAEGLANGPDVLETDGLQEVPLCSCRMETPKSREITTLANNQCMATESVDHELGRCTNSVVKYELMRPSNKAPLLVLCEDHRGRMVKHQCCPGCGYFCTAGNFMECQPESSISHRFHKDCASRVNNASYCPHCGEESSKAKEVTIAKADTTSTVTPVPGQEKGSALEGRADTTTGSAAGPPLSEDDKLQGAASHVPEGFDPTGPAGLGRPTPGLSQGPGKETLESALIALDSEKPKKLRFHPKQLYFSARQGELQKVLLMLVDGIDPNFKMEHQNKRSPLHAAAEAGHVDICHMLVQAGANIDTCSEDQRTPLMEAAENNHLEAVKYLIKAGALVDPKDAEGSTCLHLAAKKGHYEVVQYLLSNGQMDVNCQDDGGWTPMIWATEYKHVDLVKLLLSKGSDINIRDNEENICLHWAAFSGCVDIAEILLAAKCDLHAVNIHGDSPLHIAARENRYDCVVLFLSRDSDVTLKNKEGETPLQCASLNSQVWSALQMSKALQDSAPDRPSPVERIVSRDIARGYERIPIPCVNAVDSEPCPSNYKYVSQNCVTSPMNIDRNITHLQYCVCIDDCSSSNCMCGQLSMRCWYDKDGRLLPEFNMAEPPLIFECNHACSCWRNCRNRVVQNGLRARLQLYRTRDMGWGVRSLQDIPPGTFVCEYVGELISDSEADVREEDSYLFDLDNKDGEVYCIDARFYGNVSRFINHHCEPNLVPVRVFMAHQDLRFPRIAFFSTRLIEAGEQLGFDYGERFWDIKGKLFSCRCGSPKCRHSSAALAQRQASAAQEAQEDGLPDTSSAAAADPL
Kind of data set: Inhibition of GLP (unknown origin).

Data set [9] deals with T1, Histone-lysine N-methyltransferase EHMT2. Kind of data set: Inhibition of human recombinant G9a using H3-SAM as substrate.

With `C=C(C)C(=O)NCc1nc(NC2CCN(C)CC2)c2cc(OC)c(OCCCN3CCCC3)cc2n1`, the pIC50 in data set [1] is 6.94.
Consider `COc1cc2c(NC3CCN(C)CC3)nc(CNC(=O)C3(C#N)CC3)nc2cc1OCCCN1CCCC1`, for which the negative-log IC50 (pIC50) in [1] was 6.95.
Same read-out and setting: in the case of `CC#CC(=O)NCc1cc(NC2CCN(C)CC2)c2cc(OC)c(OCCCN3CCCC3)cc2n1` it was 9.38.
Still for that read-out and setting: under `C=CC(=O)NCc1nc(NC2CCN(C)CC2)c2cc(OC)c(OCCCN3CCCC3)cc2n1` stands 7.22.
Take `C=CC(=O)N(C)c1nc(NC2CCN(C3CCCCC3)CC2)c2cc(OC)c(OCCCN3CCCC3)cc2n1`: the half-life at 0.1 µM in [2] was determined as 10 min. In addition, the negative-log IC50 (pIC50) is 5.65 in data set [3], 8.45 in data set [1] and 5.61 in [4].
In data set [1], `C=C(C)C(=O)NCc1cc(NC2CCN(C)CC2)c2cc(OC)c(OCCCN3CCCC3)cc2n1` showed a pIC50 of 9.28.
Still for that read-out and setting: under `COc1cc2c(NC3CCN(C)CC3)nc(CNC(=O)CC#N)nc2cc1OCCCN1CCCC1` stands 7.10.
`C/C=C/C(=O)NCc1cc(NC2CCN(C)CC2)c2cc(OC)c(OCCCN3CCCC3)cc2n1` showed a negative-log IC50 (pIC50) in data set [1] of 9.28.
Same read-out and setting: under `CCC(=O)NCc1cc(NC2CCN(C)CC2)c2cc(OC)c(OCCCN3CCCC3)cc2n1` stands 9.15.
Turning to `C=CC(=O)N(C)c1nc(NC2CCN(C(C)C)CC2)c2cc(OC)c(OCCCN3CCCC3)cc2n1`, the results for the negative-log IC50 (pIC50) in [3], in data set [1] and in data set [4] were 5.02, 8.36 and 5.09, respectively.
Taken in the same sequence, the figures for `C=CC(=O)N(C)c1nc(NCC2CCN(C)CC2)c2cc(OC)c(OCCCN3CCCC3)cc2n1` were less than 4.40, 7.96 and less than 4.40.
On to `COc1cc2c(NC3CCN(C)CC3)cc(CNC(=O)CCl)nc2cc1OCCCN1CCCC1`, for which the pIC50 in [1] was 8.77.
For `C=CC(=O)N(C)c1nc(NC2CCN(CCC)CC2)c2cc(OC)c(OCCCN3CCCC3)cc2n1`, the negative-log IC50 (pIC50) in data set [3] was 5.26; in [1] it was 8.41; in data set [4], 5.32.
Turning to `COc1cc2c(NC3CCN(C)CC3)nc(CNC(=O)/C=C/CN(C)C)nc2cc1OCCCN1CCCC1`, the pIC50 in [1] was 8.12.
`CCC(=O)NCc1nc(NC2CCN(C)CC2)c2cc(OC)c(OCCCN3CCCC3)cc2n1` gave a pIC50 in data set [1] of 7.19.
In turn, `C/C=C/C(=O)NCc1nc(NC2CCN(C)CC2)c2cc(OC)c(OCCCN3CCCC3)cc2n1` had a pIC50 in data set [1] of 7.13.
For the compound `CCC(=O)N(C)c1nc(NC2CCN(C)CC2)c2cc(OC)c(OCCCN3CCCC3)cc2n1`, in data set [5], the inhibition entry is “inactive”. Moreover, the outcome in data set [6] was Active. The inhibition result in [7] was “Tde”. The negative logarithm of the IC50 (pIC50) was 5.01 in data set [3], 8.24 in [1] and 4.83 in data set [4].
Consider `CC#CC(=O)NCc1nc(NC2CCN(C)CC2)c2cc(OC)c(OCCCN3CCCC3)cc2n1`, for which the negative-log IC50 (pIC50) in data set [1] was 7.02.
The compound `C=CC(=O)NCc1cc(NC2CCN(C)CC2)c2cc(OC)c(OCCCN3CCCC3)cc2n1` had a pIC50 in [1] of 9.31.
Same read-out and setting: in the case of `COc1cc2c(NC3CCN(C)CC3)nc(CNC(=O)CCl)nc2cc1OCCCN1CCCC1` it was 8.24.
For the compound `C=CC(=O)N(C)c1nc(NC2CCN(Cc3ccccc3)CC2)c2cc(OC)c(OCCCN3CCCC3)cc2n1`, in data set [2], the half-life at 0.1 µM was 4.72 min. Besides, the pIC50 in data set [3] is 6.34; in [1], 8.23; in [4], 6.28.
Regarding `CNc1nc2cc(OCCCN3CCCC3)c(OC)cc2n1C(C)C`, the negative-log IC50 (pIC50) in [8] and in data set [9] was more than 7.00 throughout.

The pIC50 is −log10 of the IC50, conventionally taken in molar units. For orientation: half-life means the time needed for the level to fall by half in the phase considered.
